# T1: Dihydropyrimidine dehydrogenase [NADP(+)] (Bos taurus) (UniProt Q28007)
# T1 sequence (whole entry): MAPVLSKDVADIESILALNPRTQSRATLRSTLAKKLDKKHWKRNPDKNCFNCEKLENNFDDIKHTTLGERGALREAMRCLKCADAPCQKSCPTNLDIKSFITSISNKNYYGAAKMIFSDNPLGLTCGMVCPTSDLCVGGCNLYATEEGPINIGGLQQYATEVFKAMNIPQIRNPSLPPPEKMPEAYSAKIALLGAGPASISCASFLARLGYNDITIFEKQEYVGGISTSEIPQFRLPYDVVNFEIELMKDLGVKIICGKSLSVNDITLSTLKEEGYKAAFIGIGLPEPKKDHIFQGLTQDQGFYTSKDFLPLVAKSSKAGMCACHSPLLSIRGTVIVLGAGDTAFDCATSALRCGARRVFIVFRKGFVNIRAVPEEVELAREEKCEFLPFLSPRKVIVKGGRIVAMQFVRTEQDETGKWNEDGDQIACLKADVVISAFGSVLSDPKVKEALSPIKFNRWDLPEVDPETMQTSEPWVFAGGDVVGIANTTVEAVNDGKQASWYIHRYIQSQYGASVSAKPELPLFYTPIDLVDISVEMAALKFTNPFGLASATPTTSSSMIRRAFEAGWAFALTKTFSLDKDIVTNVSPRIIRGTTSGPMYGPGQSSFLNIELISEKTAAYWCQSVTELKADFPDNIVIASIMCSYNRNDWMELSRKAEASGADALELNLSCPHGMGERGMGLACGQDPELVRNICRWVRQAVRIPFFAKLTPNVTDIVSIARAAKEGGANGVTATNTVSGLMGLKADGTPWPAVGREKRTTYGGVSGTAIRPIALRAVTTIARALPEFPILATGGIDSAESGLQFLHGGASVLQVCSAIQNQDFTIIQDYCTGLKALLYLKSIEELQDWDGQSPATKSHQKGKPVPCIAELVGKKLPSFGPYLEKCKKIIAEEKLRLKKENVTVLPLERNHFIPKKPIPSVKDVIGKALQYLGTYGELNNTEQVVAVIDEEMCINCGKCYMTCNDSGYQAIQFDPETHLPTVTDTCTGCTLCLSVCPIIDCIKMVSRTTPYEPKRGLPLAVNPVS
# T2: Amine oxidase [flavin-containing] A (Homo sapiens, UniProt P21397)
# T2 sequence (P21397 whole entry): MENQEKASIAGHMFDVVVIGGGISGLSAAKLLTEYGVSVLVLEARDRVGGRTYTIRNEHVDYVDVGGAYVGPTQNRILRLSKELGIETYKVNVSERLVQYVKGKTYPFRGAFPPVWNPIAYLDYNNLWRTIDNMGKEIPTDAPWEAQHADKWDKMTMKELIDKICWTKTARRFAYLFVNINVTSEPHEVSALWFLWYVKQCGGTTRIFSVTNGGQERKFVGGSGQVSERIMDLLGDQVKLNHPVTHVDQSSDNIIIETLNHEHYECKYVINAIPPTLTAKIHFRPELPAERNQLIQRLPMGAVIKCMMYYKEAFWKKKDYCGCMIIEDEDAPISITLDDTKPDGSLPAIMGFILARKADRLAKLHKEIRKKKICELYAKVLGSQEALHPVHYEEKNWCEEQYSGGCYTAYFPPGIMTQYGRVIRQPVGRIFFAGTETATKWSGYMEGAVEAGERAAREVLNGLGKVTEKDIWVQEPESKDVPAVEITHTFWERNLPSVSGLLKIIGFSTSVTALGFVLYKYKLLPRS
# T3: Thymidine kinase, cytosolic (Homo sapiens, UniProt P04183)
# T3 sequence (P04183 whole entry): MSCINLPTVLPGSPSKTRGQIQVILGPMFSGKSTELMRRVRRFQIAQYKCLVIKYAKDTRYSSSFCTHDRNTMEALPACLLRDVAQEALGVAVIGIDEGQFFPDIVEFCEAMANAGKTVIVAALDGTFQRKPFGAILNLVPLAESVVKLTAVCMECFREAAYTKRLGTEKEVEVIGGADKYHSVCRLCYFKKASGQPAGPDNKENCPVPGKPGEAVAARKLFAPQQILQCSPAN
# B1: Thymidine kinase, cytosolic (Homo sapiens) (protein)
# chain: MSCINLPTVLPGSPSKTRGQIQVILGPMFSGKSTELMRRVRRFQIAQYKCLVIKYAKDTRYSSSFCTHDRNTMEALPACLLRDVAQEALGVAVIGIDEGQFFPDIVEFCEAMANAGKTVIVAALDGTFQRKPFGAILNLVPLAESVVKLTAVCMECFREAAYTKRLGTEKEVEVIGGADKYHSVCRLCYFKKASGQPAGPDNKENCPVPGKPGEAVAARKLFAPQQILQCSPAN
# Tests used:
# [1] = molecular target: T1, Dihydropyrimidine dehydrogenase [NADP(+)] (Bos taurus); assay: Inactivation of bovine liver DHPDHase assessed as Kinact in presence of NADPH
# [2] = test system: Human immunodeficiency virus 1; assay: Antiviral activity against HIV-1 3B infected in human MT4 cells incubated for 5 days by MTT assay; assay type: functional, organism-based; conditions: Human immunodeficiency virus 1, 3B, MT4, 120 h
# [3] = Cytotoxicity against human MT4 cells; assay type: cell-based
# [4] = Selectivity ratio of CC50 for human MT4 cells to IC50 for HIV-1 3B; assay type: toxicity; conditions: read-out: Ratio CC50/IC50
# [5] = Stability in human liver microsomes assessed as compound metabolized at 25 uM after 30 mins in presence of NADPH by HPLC analysis; assay type: ADME, Microsome; conditions: read-out: Drug metabolism
# [6] = Thermodynamic aqueous solubility of compound in pH 7 buffer at 1 to 2 mg after 4 hrs by HPLC analysis; assay type: physicochemical; conditions: read-out: Therm_solubility
# [7] = Half life in human plasma at 25 uM after 1 to 3 hrs by reversed-phase HPLC; assay type: ADME, cell-free
# [8] = test system: rhinovirus B14; assay: Antiviral activity against Human rhinovirus 14 infected in HeLa […] cells after 2 days by XTT/PMS assay; assay type: functional, organism-based; conditions: Rhinovirus B, 48 h
# [9] = molecular target: Cholinesterase (Homo sapiens, UniProt P06276); assay: Inhibition of butyrylcholinesterase (unknown origin)
# Sequence of Cholinesterase (P06276 whole entry): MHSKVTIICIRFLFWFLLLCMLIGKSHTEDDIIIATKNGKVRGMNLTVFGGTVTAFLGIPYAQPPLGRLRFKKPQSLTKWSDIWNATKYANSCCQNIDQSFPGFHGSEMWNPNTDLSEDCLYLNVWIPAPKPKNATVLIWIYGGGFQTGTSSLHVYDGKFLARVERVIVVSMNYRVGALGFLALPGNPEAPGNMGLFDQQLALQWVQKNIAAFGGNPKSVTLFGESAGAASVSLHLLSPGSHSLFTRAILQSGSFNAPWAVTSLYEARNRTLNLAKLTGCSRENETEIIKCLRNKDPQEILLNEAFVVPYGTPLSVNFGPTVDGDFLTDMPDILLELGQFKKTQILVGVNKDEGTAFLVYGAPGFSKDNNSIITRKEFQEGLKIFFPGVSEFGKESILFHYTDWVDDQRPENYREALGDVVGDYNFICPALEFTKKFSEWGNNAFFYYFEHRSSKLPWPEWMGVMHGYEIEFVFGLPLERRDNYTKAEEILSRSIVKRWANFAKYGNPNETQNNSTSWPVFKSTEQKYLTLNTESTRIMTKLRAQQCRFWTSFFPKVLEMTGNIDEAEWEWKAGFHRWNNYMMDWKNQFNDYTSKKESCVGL
# [10] = molecular target: Acetylcholinesterase (Homo sapiens, UniProt P22303); assay: Inhibition of acetylcholinesterase (unknown origin)
# Sequence of Acetylcholinesterase (P22303 whole entry): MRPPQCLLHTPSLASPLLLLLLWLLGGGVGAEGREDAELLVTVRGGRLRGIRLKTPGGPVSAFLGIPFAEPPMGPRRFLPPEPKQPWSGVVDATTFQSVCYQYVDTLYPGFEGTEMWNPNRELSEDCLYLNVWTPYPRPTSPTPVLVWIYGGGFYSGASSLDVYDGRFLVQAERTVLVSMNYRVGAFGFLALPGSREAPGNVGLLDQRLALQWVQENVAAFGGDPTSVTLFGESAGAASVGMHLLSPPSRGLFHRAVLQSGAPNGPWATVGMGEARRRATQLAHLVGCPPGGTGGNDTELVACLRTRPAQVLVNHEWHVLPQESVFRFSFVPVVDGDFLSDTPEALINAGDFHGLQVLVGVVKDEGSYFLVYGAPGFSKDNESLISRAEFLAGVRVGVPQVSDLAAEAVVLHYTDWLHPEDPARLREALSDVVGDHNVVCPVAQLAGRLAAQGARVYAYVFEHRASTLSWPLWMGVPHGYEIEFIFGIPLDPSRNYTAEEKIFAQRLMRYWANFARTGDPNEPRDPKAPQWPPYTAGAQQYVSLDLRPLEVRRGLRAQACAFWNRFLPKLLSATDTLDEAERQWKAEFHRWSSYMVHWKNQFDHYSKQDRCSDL
# [11] = test system: Human rhinovirus sp.; assay: Antiviral activity against Human rhinovirus; assay type: functional, organism-based
# [12] = Plasma clearance in iv dosed cynomolgus monkey; assay type: ADME, organism-based, Macaca fascicularis
# [13] = Substrate activity at UDP-glucuronosyltransferase in cynomolgus monkey microsomes assessed as Vmax; assay type: ADME, Macaca fascicularis
# [14] = Half life in cynomolgus monkey; assay type: ADME, Macaca fascicularis; conditions: in vivo
# [15] = molecular target: T2, Amine oxidase [flavin-containing] A; assay: Inhibition of human MAO-A
# [16] = molecular target: T3, Thymidine kinase, cytosolic; assay: (§1) Substrate activity at human thymidine kinase 1 assessed as Km incubated for 24 hrs; assay type: ADME
# [17] = Cytotoxicity against human MT2 cells; assay type: cell-based
# [18] = test system: Human immunodeficiency virus 1; assay: Antiviral activity against HIV1 3B infected in human MT2 cells; assay type: functional, organism-based; conditions: Human immunodeficiency virus 1, 3B
# [19] = molecular target: T2, Amine oxidase [flavin-containing] A; assay: Inhibition of human MAO-A using Tyramine hydrochloride as substrate preincubated for 30 mins followed by substrate addition and measured for 1 hr by fluorometric method
# [20] = Inactivation of CYP2B1 (unknown origin); design: species or system Homo sapiens
# [21] = species on record: Homo sapiens; assay: Inactivation of CYP2B1 (unknown origin) assessed as Kinact
# [22] = Cmax in rhesus monkey at 8 mg/kg, po; assay type: ADME, organism-based, Macaca mulatta; design: dose 8 mg/kg, route oral; conditions: in vivo
# [23] = test system: Poliovirus 1; assay: Antiviral activity against Poliovirus type 1 Mahoney infected in African green monkey BSC1 cells by crystal violet staining based plaque reduction assay; assay type: functional, organism-based; conditions: Enterovirus C, BSC-1
# [24] = substrate: C#C[C@@]1(CO)C=C[C@H](n2cc(C)c(=O)[nH]c2=O)O1; assay: as §1; assay type: ADME
molecule,measurement,setting,value
CC#Cn1ccc(=O)[nH]c1=O,Kinact,[1],0.46 min⁻¹
C#C[C@]1(CO)O[C@@H](n2cnc3c(N)nc(F)nc32)C[C@@H]1O,IC50,[2],0.3 nM
same,CC50,[3],19.2 µM
same,selectivity ratio,[4],> 60000
CCOC(=O)/C=C/[C@H](CC1CCNC1=O)NC(=O)[C@H](Cc1ccc(F)c(F)c1)n1cccc(NC(=O)c2cc(C)on2)c1=O (stereo partly specified),"metabolised at 0.5 h, 25 µM",[5],81%
same,solubility thermodynamic at 4 h,[6],25 µg/mL
same,half-life at 25 µM,[7],84 min
same,EC50,[8],11 nM
Oc1ncc(/C=C/Br)c(O)n1,Kinact,[1],0.6 min⁻¹
C#CCNCc1cc2cc(OCc3ccccc3)ccc2[nH]1,IC50,[9],> 100 µM
same,IC50,[10],> 100 µM
C#CC[C@@H](C(=O)N[C@H](/C=C/C(=O)OCC)CC1CCNC1=O)n1cccc(NC(=O)c2cc(C)on2)c1=O (stereo partly specified),"metabolised at 0.5 h, 25 µM",[5],40%
same,solubility thermodynamic at 4 h,[6],377 µg/mL
same,half-life at 25 µM,[7],396 min
same,EC50,[11],58 nM
CC(c1cc2ccccc2s1)N(O)C(N)=O (stereo unspecified) [ZILEUTON],clearance,[12],14 mL/min/kg
same,Vmax,[13],1.2 nmol/min/mg
same,half-life,[14],24 min
O=c1[nH]cc(C(F)(F)F)c(=O)[nH]1,Kinact,[1],0.23 min⁻¹
N#Cc1cnc(O)nc1O,Kinact,[1],0.78 min⁻¹
C#CCN[C@@H]1CCc2ccc(OC(=O)N(C)CC)cc21 [LADOSTIGIL],IC50,[15],> 100 µM
Cc1cn([C@H]2C=C[C@@H](CO)O2)c(=O)[nH]c1=O [STAVUDINE],Km,[16],133 µM
same,CC50,[17],98 µM
same,EC50,[18],1300 nM
C#CCN(C)c1nc(NCCCCC2CCN(Cc3ccccc3)CC2)c(C#N)cc1C#N,IC50,[19],> 100 nM
C#Cc1c[nH]c(=O)[nH]c1=O,Kinact,[1],5.64 min⁻¹
CC(C#Cc1ccc(Cc2ccc(F)cc2)s1)N(O)C(N)=O (stereo unspecified),half-life,[14],870 min
Cc1cn([C@H]2C=C[C@@](C#N)(CO)O2)c(=O)[nH]c1=O,CC50,[17],> 100 µM
same,EC50,[18],7000 nM
C#C[C@@]1(CO)C=C[C@H](n2cc(C)c(=O)[nH]c2=O)O1 [CENSAVUDINE],CC50,[17],> 256 µM
same,EC50,[18],250 nM
C#CCN(C)[C@H](C)Cc1ccccc1 [SELEGILINE],Ki,[20],1000 nM
same,Kinact,[21],0.23 min⁻¹
CC(C#Cc1cccc(Oc2ccc(F)cc2)c1)N(O)C(N)=O (stereo unspecified) [FENLEUTON],clearance,[12],1.3 mL/min/kg
same,Vmax,[13],0.05 nmol/min/mg
same,half-life,[14],330 min
C#C/C=C(\c1ccccc1)c1ccc2nc(N)n(S(=O)(=O)C(C)C)c2c1,Cmax,[22],70 to 300 ng/mL
same,IC50,[23],0.02 µg/mL
CC(/C=C/c1cccc(Oc2ccc(F)cc2)c1)N(O)C(N)=O (stereo unspecified),clearance,[12],2 mL/min/kg
same,Vmax,[13],0.19 nmol/min/mg
same,half-life,[14],282 min
[N-]=[N+]=C1C=NC(=O)NC1=O,Kinact,[1],1.68 min⁻¹
O=c1[nH]cc(Br)c(=O)[nH]1,Kinact,[1],0.42 min⁻¹
C/C=C(\c1ccccc1)c1ccc2nc(N)n(S(=O)(=O)C(C)C)c2c1,Cmax,[22],14 to 140 ng/mL
same,IC50,[23],0.06 µg/mL
B1,Km,[24],53 µM
